Tests used:
T127I variant GGH = biological target: T1, T127I variant GGH (Homo sapiens, UniProt Q92820, T151I); assay: Enzyme kinetic analysis of heterologously expressed wild-type and T127I variant GGH with MTX-PG as substrate; type: biochemical; conditions: recombinant GGH, substrate as labelled; for catalytic efficiency (Vmax/Km) reduction of T127I variant: versus wild-type, p=0.003
T1 construct: A cDNA encoding the 294 amino acids of human GGH (with out leading peptide) was cloned by RT-PCR; made in house; host or cells: E. coli BL21(DE3)pLysS
T1 sequence (Q92820 25-318 T151I): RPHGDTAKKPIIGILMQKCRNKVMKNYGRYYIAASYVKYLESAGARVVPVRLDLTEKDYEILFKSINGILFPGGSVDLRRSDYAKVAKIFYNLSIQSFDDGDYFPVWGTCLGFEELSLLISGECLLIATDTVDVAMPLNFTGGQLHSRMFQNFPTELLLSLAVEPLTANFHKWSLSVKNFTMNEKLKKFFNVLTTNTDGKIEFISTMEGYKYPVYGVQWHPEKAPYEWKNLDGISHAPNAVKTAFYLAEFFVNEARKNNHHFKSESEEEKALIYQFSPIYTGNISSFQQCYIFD
Experimental: Wild-type human GGH cloning and site-directed mutagenesis: A cDNA encoding the 294 amino acids of human GGH (with out leading peptide) was cloned by RT-PCR and TA cloning (Invitrogen, Carlsbad, Calif.) using RNA isolated from human CEM cells. Plasmid DNA was purified using the mini prep kit (Qiagen, Santa Clarita, Calif.). After sequencing, the selected cDNA clone was subcloned into the pET28b vector (Novagen, Madison, Wis.) from Nde1 and BamH1 sites, and an N-terminal HisTag was added. This HisTag enabled the purification of large quantities of protein and had no effect on GGH activity (Chave, K. J. et al., 2000, id). Site-directed mutagenesis was performed with the QuickChange II kit (Stratagene, La Jolla, Calif.) according to the manufacturer's protocol. The primers used for mutagenesis of wild-type human GGH to T127I were
Expression and characterization of T127I variant GGH: Plasmids carrying wild-type and T127I variant GGH were used to transform E. coli strain BL21(DE3)pLysS competent cells (Novagen, Madison, Wis.). The E. coli cells were grown in LB medium containing 30 μg/ml kanamycin and 34 μg/ml chloramphenicol at 37° C. to OD600 about 0.6 and expression was induced with 1 mM isopropyl-β-D-thiogalactoside for 3 h. Cells were harvested by centrifugation at 5,000 g for 5 min at 4° C., and were kept as a frozen pellet at −70° C. Target proteins were extracted using BugBuster His-Bind Purification kit (Novagen, Madison, Wis.), followed by gel filtration chromatography at 4° C. on a HiLoad 26/60 S200 Superdex column (Amersham Pharmacia Biotech, Sweden) in 0.05 M sodium acetate buffer, pH5.5, containing 0.05 M 2-mercaptoethanol, 1 M NaCl, and 1 mM EDTA. Fractions containing target proteins were pooled and proteins were concentrated using Viva Cell 70 ml Concentrator, followed by Viva Cpin 2 ml Concentrator (Vivascience, Edgewood, NY).
Wild-type and T127I variant forms of human GGH were separated using NuPAGE™ 4-12% Bis-Tris Gel (Invitrogen, Carlsbad, Calif.). Protein bands were visualized by silver staining (Amersham Pharmacia Biotech, Sweden). Western blot was carried out as described (Tai, H. L. et al., “Thiopurine S-methyltransferase deficiency: two nucleotide transitions define the most prevalent mutant allele associated with loss of catalytic activity in Caucasians” Am J Hum Genet 58:694-702 (1996)). Polyclonal anti-human GGH rabbit antibody was kindly provided by Drs Thomas J. Ryan and […]. GGH activity was measured using MTEN buffer with 25 mM DTT. The assay mixture without substrate was incubated at 37° C. for 20 min, followed by incubation with substrate at 37° C. for 5 min and boiling for 5 min. In each experiment, wild-type and variant GGH were analyzed in parallel using varying concentrations of MTX-PG5 or MTX-PG2 as substrate. The substrate and the reaction products were analyzed by HPLC, and GGH activity was calculated by total amount of product formed per min per μg protein. Two independent experiments were carried on with each substrate. Nonlinear least-squares regression was used to estimate Km and Vmax by fitting a Michaels-Menten model as described earlier (Panetta, J. C. et al., id).

GGH = biological target: T2, GGH (Homo sapiens, UniProt Q92820, T151I); conditions: MTXPG2 as the substrate; reported by Chave et al. 2003; cited from earlier work
T2 sequence (Q92820 25-318 T151I): T1 sequence (Q92820 25-318 T151I)

| difference in Vmax between the wild-type and T127I variant (T127I variant GGH) | Km increase of T127I variant compared to wild-type GGH (T127I variant GGH; p=0.021) | catalytic efficiency (Vmax/Km) reduction of T127I variant (T127I variant GGH) | catalytic efficiency (Vmax/Km) reduction of T127I variant (T127I variant GGH; listed as MTXPG5) | difference in Km between the wild-type and T127I variant (T127I variant GGH) | difference in catalytic efficiency between the wild-type and T127I variant (T127I variant GGH) | SMILES | effect of T127I mutation on GGH activity (GGH) |
| --- | --- | --- | --- | --- | --- | --- | --- |
| not a significant difference | 2.7 fold | 67% | 67.5% | – | – | CN(Cc1cnc2nc(N)nc(N)c2n1)c1ccc(C(=O)N[C@@H](CCC(=O)N[C@@H](CCC(=O)N[C@@H](CCC(=O)N[C@@H](CCC(=O)N[C@@H](CCC(=O)O)C(=O)O)C(=O)O)C(=O)O)C(=O)O)C(=O)O)cc1 [MTX-PG5] | – |
| not a significant difference | – | – | – | not a significant difference | not a significant difference | CN(Cc1cnc2nc(N)nc(N)c2n1)c1ccc(C(=O)N[C@@H](CCC(=O)N[C@@H](CCC(=O)O)C(=O)O)C(=O)O)cc1 [MTX-PG2] | did not change GGH activity |

Reference: patent US7741032B2, “Genotyping assay to predict gamma glutamyl hydrolase (GGH) activity” (St. Jude Children's Research Hospital, Inc., priority 2004, dated 2010)
